Source: patent publication US12138256B2, “Treatment of cardiopulmonary disorders” (Bayer Aktiengesellschaft, priority 2021, dated 2024)

Experiments:
[1] = tested on: isolated Langendorff-perfused rat heart; assay: Isolated perfused heart according to Langendorff: perfusion pressure and wash-out score (C-1.2); conditions: for Perfusion pressure (%) (timepoint at 20 min) Mean: isolated Langendorff-perfused rat heart; for Perfusion pressure (%) (timepoint at 90 min) Mean: wash-out phase; for wash-out score: PP recovery after 60 min of washout related to maximum drop of PP; for wash-out score / effect on perfusion pressure (PP): comparative example 11 300 nmol/l, others 100 nmol/l, n=6
Method: Male Wistar rats (strain HsdCpb:WU) with a body weight of 200-250 g were anaesthetized with Narcoren® (100 mg/kg). The thorax was opened and the heart was then exposed, excised and connected to a Langendorff apparatus by placing a cannula into the aorta. The heart was perfused retrogradely at 9 ml/min at constant flow with a Krebs-Henseleit buffer solution (gassed with 95% O2 and 5% CO2, pH 7.4, 35° C.; composition in mmol/l: NaCl 118; KCl 3; NaHCO3 22; KH2PO4 1.2; MgSO4 1.2; CaCl2 1.8; Glucose 10; Na pyruvate 2). A pressure transducer registered the perfusion pressure in the perfusion system. The left ventricular pressure (LVP) was measured using a second pressure transducer connected to a water-filled balloon which was inserted into the left ventricle via the left atrium. The end diastolic pressure was initially set to 8 mm Hg by adjusting the volume of the balloon. The hearts were spontaneously beating. The signals from the pressure transducer were amplified, registered by a personal computer (Powerlab Chart software, ADInstruments).
Then the hearts were perfused for a further 120 min without the test substance (wash-out phase). The reversibility of the effect (wash-out score) was calculated as a percentage of the PP recovery after 60 min of washout related to the maximum drop of PP induced by the test compound. The wash-out score obtained in this manner was taken as a measure for the residence time of the test substance at the site of action.

[2] = Protein binding via Transil assay, monkey plasma; assay type: in vitro ADME; conditions: Monkey Cynomolgus plasma
From the text: (§1) The distribution of a test substance between Transil® (phosphatidylcholine lipid bilayers immobilized on silica beads) and plasma is a characteristic feature of any pharmaceutical compound and is dependent on its extent of binding to plasma proteins. By comparing the distribution between Transil® and buffer with the distribution between Transil® and plasma of any species of interest, the unbound fraction in the plasma of the respective animal species can be calculated in vitro. The respective plasma and buffer concentrations were determined via a radioactivity analysis. A detailed description of the method and its validation was published by Schuhmacher et al. (2).

[3] = Caco-2 permeability test (C-5.1); assay type: in vitro ADME, human; conditions: human; for efflux ratio at 2 h, 2 μM / Papp A→B at 2 h, 2 μM / Papp B→A at 2 h, 2 μM: Caco-2 (2 μM); for Papp A→B at 2 h, 2 μM / Papp B→A at 2 h, 2 μM: concentration per compound 2.0 or 2.4 μM; for Papp A→B at 2 h, 2 μM: read-out: Papp A-B (mean +/− SD); for Papp B→A at 2 h, 2 μM: read-out: Papp B-A (mean +/− SD)
Method: The in vitro permeation of a test compound across a Caco-2 cell monolayer is a well-established assay system to predict the permeability from the gastro-intestinal tract (1). The permeability of the compounds of the present invention in such Caco-2 cells was determined as described below:
Human caco-2 cells were seeded on 24-well insert plates and were allowed to grow for 14-16 days. For permeability studies, the test compounds were dissolved in DMSO and diluted to the final test concentration of 2 μM with transport buffer [Hanks' Buffered Salt Solution, Gibco/Invitrogen, further supplemented with glucose and HEPES]. For determination of the apical to basolateral permeability (PappA-B), the test compound solution was added to the apical side of the cell monolayer and transport buffer to the basolateral side of the monolayer; for determination of the basolateral to apical permeability (PappB-A), the test compound solution was added to the basolateral side of the cell monolayer and transport buffer to the apical side of the monolayer. Samples were taken from the donor compartment at the beginning of the experiment to confirm mass balance. After an incubation of 2 h at 37° C., samples were taken from both compartments. Samples were analyzed by LC-MS/MS, and the apparent permeability coefficients were calculated. Lucifer Yellow permeability was assayed for each cell monolayer to ensure cell monolayer integrity, and the permeability of Atenolol (low permeability marker) and Sulfasalazine (marker for active excretion) was determined for each batch as quality control.

[4] = Protein binding via Transil assay, plasma of all species investigated (C-5.2); assay type: in vitro ADME; conditions: Wistar (rat), Beagle (dog), plasma (Transil beads), read-out: free fractions
From the text: as §1

[5] = Protein binding via Transil assay, human plasma; assay type: in vitro ADME
From the text: as §1

[6] = Protein binding via Transil assay, rat plasma; assay type: in vitro ADME; conditions: Rat Wistar plasma, Transil assay
From the text: as §1

[7] = Human (male) plasma, Transil assay, read-out: Fraction unbound

O=C(O)CCCCN(CCc1cc(F)ccc1OCc1ccc(-c2nc3cc(Cl)ccc3o2)cc1)C1CCCc2nc(C(=O)O)ccc21 (single isomer, unassigned) [comparative example 3, (5)-{(4-carboxybutyl)[2-(2-{[4-(5-chloro-1,3-benzoxazol-2-yl)benzyl]oxy}-5-fluorophenyl)ethyl]amino}-5,6,7,8-tetrahydroquinoline-2-carboxylic acid]
Wash-out score (%) after 60 min ([1]; 100 nmol/l): 25.4% | Perfusion pressure (%) (timepoint at 20 min) Mean ([1]; 100 nmol/l): 63.3% | Perfusion pressure (%) (timepoint at 90 min) Mean ([1]; 100 nmol/l): 72.5% | wash-out score [1]: 25.4% | effect on perfusion pressure (PP) [1]: pronounced reduction of perfusion pressure

O=C(O)CCCCN(CCc1ccccc1OCc1ccc(CCc2ccccc2)cc1)Cc1ccc(C(=O)O)cc1 [comparative example 1, 4-[((4Carboxybutyl)-{2-[(4-phenethylbenzyl)oxy]phenethyl}amino)methyl]benzoic acid]
fraction unbound [2]: 0.000799 | efflux ratio at 2 h, 2 μM [3]: 20 ± 3.5 | Papp A→B at 2 h, 2 μM [3]: 3.1 ± 0.39 ×10⁻⁶ cm/s | Papp B→A at 2 h, 2 μM [3]: 63.1 ± 7.1 ×10⁻⁶ cm/s | wash-out score [1]: 30% | effect on perfusion pressure (PP) [1]: pronounced reduction of perfusion pressure | fraction unbound [4]: < 0.01 | fraction unbound [5, 7]: 0.00392 | fraction unbound [6]: 0.00351

O=C(O)c1ccc(CCN(CCc2ccccc2OCc2ccc(-c3ccc(C(F)(F)F)cc3)cc2Cl)[C@H]2CCCc3nc(C(=O)O)ccc32)cc1 [comparative example 11, (5S)-5-{[2-(4-carboxyphenyl)ethyl][2-(2-{[3-chloro-4′-(trifluoromethyl)[biphenyl]-4-yl]methoxy}phenyl)ethyl]amino}-5,6,7,8-tetrahydroquinoline-2-carboxylic acid]
fraction unbound [2]: 0.000485 | Papp at 2 h, 2 μM ([3]; Caco-2, 2 μM, 2 h at 37° C.): 1.51 ×10⁻⁶ cm/s | efflux ratio at 2 h, 2 μM [3]: 0.64 ± 0.1 | Papp A→B at 2 h, 2 μM [3]: 1.51 ± 0.17 ×10⁻⁶ cm/s | Papp B→A at 2 h, 2 μM [3]: 0.97 ± 0.06 ×10⁻⁶ cm/s | Wash-out score (%) after 60 min ([1]; 300 nmol/l): 2.9% | Perfusion pressure (%) (timepoint at 20 min) Mean ([1]; 300 nmol/l): 69.0% | Perfusion pressure (%) (timepoint at 90 min) Mean ([1]; 300 nmol/l): 71.9% | wash-out score [1]: 2.9% | effect on perfusion pressure (PP) [1]: pronounced reduction of perfusion pressure | fraction unbound [4]: < 0.01 | fraction unbound [5, 7]: 0.000764 | fraction unbound ([5]; plasma (Transil beads), human plasma, read-out: plasma fu (fraction unbound)): 0.000764 | fraction unbound [6]: 0.00224
